In publication PMC3303072 (Cell Biology and Toxicology, 2012):
Read-outs that look alike come from different tables or passages of the source.

Assays:
[1] = test system: cryopreserved human hepatocytes; conditions: for Cytotoxicity (in words): cryopreserved HH compared with HepG2 and HepaRG, xCELLigence; for Cytotoxicity class by LC50: cryopreserved HH (3 donors), xCELLigence cell index, LC50 after 48 and 72 h
CYP1A2 = conditions: human
HepaRG cells [2] = type: cell-based, human; conditions: control (DMSO) vs induced, 24 h; for Number of differentially expressed probes, Down: fold change <-2, 1,250 probes; for Number of differentially expressed probes, Up: fold change >2, 1,250 probes; for Number of differentially expressed probes, Either: fold change >2 or <-2, 1,250 probes
[3] = test system: primary human hepatocytes; type: cell-based; conditions: control (DMSO) vs induced, 24 h, 1,250 probes; for Number of differentially expressed probes, Down: fold change <-2; for Number of differentially expressed probes, Up: fold change >2; for Number of differentially expressed probes, Either: fold change >2 or <-2
HepG2 cells [4] = type: cell-based, human; conditions: control (DMSO) vs induced, 24 h; for Number of differentially expressed probes, Down: fold change <-2, 1,250 probes; for Number of differentially expressed probes, Up: fold change >2, 1,250 probes; for Number of differentially expressed probes, Either: fold change >2 or <-2, 1,250 probes
HepaRG cells [5] = conditions: xCELLigence cell index, LC50 after 48 and 72 h
HepG2 cells [6] = conditions: xCELLigence cell index, LC50 after 48 and 72 h
[7] = 100 mM stock in 100% DMSO; a 50 mM stock was prepared instead
CYP3A4 = conditions: human
in vitro [8] = conditions: human, Cytotoxicity class by LC50
in vitro [9] = conditions: human, Cytotoxicity class by LC50; remark: listed apart in the source
in vitro [10] = conditions: human, Cytotoxicity class by LC50; remark: listed apart in the source
[11] = read-out: Cmax (the maximum concentration of a drug in the blood after dosing); in vivo studies; cited from earlier work

Compound: CC(CCc1ccccc1)NCC(O)c1ccc(O)c(C(N)=O)c1 (stereo not shown) [labetalol]
- Cytotoxicity (in words) [1]: induced cytotoxicity in HH only

Compound: O=c1cc(-c2ccccc2)oc2ccc3ccccc3c12 [BNF, beta-naphthoflavone]
- Fold increase in CYP1A2 activity (CYP1A2): 9.1 fold
- Number of differentially expressed probes, Down (HepaRG cells [2]): 25
- Number of differentially expressed probes, Up (HepaRG cells [2]): 106
- Number of differentially expressed probes, Either (HepaRG cells [2]): 131
- Number of differentially expressed probes, Down ([3]; HH1): 50
- Number of differentially expressed probes, Up ([3]; HH1): 74
- Number of differentially expressed probes, Either ([3]; HH1): 124
- Number of differentially expressed probes, Down ([3]; HH2): 81
- Number of differentially expressed probes, Up ([3]; HH2): 64
- Number of differentially expressed probes, Either ([3]; HH2): 145
- Number of differentially expressed probes, Down ([3]; HH3): 35
- Number of differentially expressed probes, Up ([3]; HH3): 51
- Number of differentially expressed probes, Either ([3]; HH3): 86
- Number of differentially expressed probes, Down (HepG2 cells [4]): 61
- Number of differentially expressed probes, Up (HepG2 cells [4]): 31
- Number of differentially expressed probes, Either (HepG2 cells [4]): 92

Compound: CC(C)C(=O)Nc1ccc([N+](=O)[O-])c(C(F)(F)F)c1 [flutamide]
- Cytotoxicity (in words) [1]: induced cytotoxicity in HH only

Compound: CCOC(=O)C(C)(C)Oc1ccc(Cl)cc1 [clofibrate]
- Cytotoxicity class by LC50 (HepaRG cells [5]): non cytotoxic
- Cytotoxicity class by LC50 (HepG2 cells [6]): non cytotoxic
- Cytotoxicity class by LC50 [1]: non cytotoxic

Compound: CO[C@H]1/C=C/O[C@@]2(C)Oc3c(C)c(O)c4c(O)c(c(/C=N/N5CCN(C)CC5)c(O)c4c3C2=O)NC(=O)/C(C)=C\C=C\[C@H](C)[C@H](O)[C@@H](C)[C@@H](O)[C@@H](C)[C@H](OC(C)=O)[C@@H]1C [RIF, rifampicin]
- Number of differentially expressed probes, Down (HepaRG cells [2]): 22
- Number of differentially expressed probes, Up (HepaRG cells [2]): 41
- Number of differentially expressed probes, Either (HepaRG cells [2]): 63
- Number of differentially expressed probes, Down ([3]; HH1): 61
- Number of differentially expressed probes, Up ([3]; HH1): 26
- Number of differentially expressed probes, Either ([3]; HH1): 87
- Number of differentially expressed probes, Down ([3]; HH2): 49
- Number of differentially expressed probes, Up ([3]; HH2): 39
- Number of differentially expressed probes, Either ([3]; HH2): 88
- Number of differentially expressed probes, Down ([3]; HH3): 22
- Number of differentially expressed probes, Up ([3]; HH3): 59
- Number of differentially expressed probes, Either ([3]; HH3): 81
- Number of differentially expressed probes, Down (HepG2 cells [4]): 22
- Number of differentially expressed probes, Up (HepG2 cells [4]): 27
- Number of differentially expressed probes, Either (HepG2 cells [4]): 49

Compound: CC(=O)N1CCN(c2ccc(OCC3COC(Cn4ccnc4)(c4ccc(Cl)cc4Cl)O3)cc2)CC1 (stereo not shown) [ketoconazole]
- Solubility of stock solution [7]: solubility problems occurred at 100 mM
- Cytotoxicity (in words) [1]: induced cytotoxicity in HH only

Compound: CCC1(c2ccccc2)C(=O)NC(=O)NC1=O [PB, phenobarbital]
- Number of differentially expressed probes, Down (HepaRG cells [2]): 25
- Number of differentially expressed probes, Up (HepaRG cells [2]): 35
- Number of differentially expressed probes, Either (HepaRG cells [2]): 60
- Number of differentially expressed probes, Down ([3]; HH1): 44
- Number of differentially expressed probes, Up ([3]; HH1): 46
- Number of differentially expressed probes, Either ([3]; HH1): 90
- Number of differentially expressed probes, Down ([3]; HH2): 121
- Number of differentially expressed probes, Up ([3]; HH2): 39
- Number of differentially expressed probes, Either ([3]; HH2): 160
- Number of differentially expressed probes, Down ([3]; HH3): 29
- Number of differentially expressed probes, Up ([3]; HH3): 76
- Number of differentially expressed probes, Either ([3]; HH3): 105
- Number of differentially expressed probes, Down (HepG2 cells [4]): 60
- Number of differentially expressed probes, Up (HepG2 cells [4]): 17
- Number of differentially expressed probes, Either (HepG2 cells [4]): 77
- Fold increase in CYP3A4 activity (CYP3A4): 36.6 times
- Effect on CYP2B6 activity (CYP2B6): did not have any effect

Compound: CC(=O)Oc1ccccc1C(=O)O [aspirin]
- Cytotoxicity class by LC50 (HepaRG cells [5]): non cytotoxic
- Cytotoxicity class by LC50 (HepG2 cells [6]): non cytotoxic
- Cytotoxicity class by LC50 [1]: non cytotoxic

Compound: Nc1c2c(nc3ccccc13)CCCC2 [tacrine]
- CC50 (in vitro [8]): 50 to 100 µM

Compound: CC/C(=C(\c1ccccc1)c1ccc(OCCN(C)C)cc1)c1ccccc1 [tamoxifen]
- CC50 (in vitro [9]): 10 to 50 µM
- CC50 (in vitro [8]): < 10 µM
- CC50 (in vitro [10]): 10 to 50 µM

Compound: C#C[C@]1(O)CC[C@H]2[C@@H]3CCC4=Cc5oncc5C[C@]4(C)[C@H]3CC[C@@]21C [danazol]
- Cmax [11]: 160 nM

Compound: CCCCc1oc2ccccc2c1C(=O)c1cc(I)c(OCCN(CC)CC)c(I)c1 [amiodarone]
- CC50 (in vitro [8]): < 10 µM
